Assay [1] addresses T1, NPR1 (Arabidopsis thaliana, UniProt P93002).
T1 construct: made in house; host or cells: E. coli
The assay can be described thus: Sephacryl S300 gel filtration of Strep-tagged NPR1. It is filed as biochemical. As for the experimental part: (§1) Strep-tagged purified proteins in a final volume of 2 ml were subjected to gel filtration analysis on the Sephacryl S100 HR or Sephacryl S300 HR packed in 50 cm long HR 16 columns (GE Health) and equilibrated with S300 chromatography buffer (50 mM HEPES, pH 7.4, 250 mM NaCl. Elutions, in 0.5 ml fractions, were performed in the same buffer at a flow rate of 0.8 ml/min. Where indicated, proteins were incubated with 1 mM SA, 1 mM catechol, 1 mM 4-hydroxy benzoic acid, or 1 mM methyl-salicylate at room temperature for 30 min prior to chromatography as described above with the exception that the chromatography buffer was supplemented with 1 mM SA, 1 mM catechol, 1 mM 4-hydroxy benzoic acid, or 1 mM methyl-salicylate, respectively. In the case of the EDTA treatment, NPR1 was stripped of its metal by a 50 mM EDTA treatment of 30 min, followed by an incubation of 30 min with 1 mM SA prior to gel filtration. In this case, the chromatography buffer was supplemented with 1 mM SA.
On the technique in general: SEC sorts molecules by how far they enter the pores of the column.

Assay [2] has as its target T2, NPR1 C521S/C529S (Arabidopsis thaliana, UniProt P93002, C521S/C529S).
T2 construct: both full-length NPR1 and Δ513 harboring C-to-S mutations at Cys^521/529; made in house; host or cells: E. coli
The assay can be described thus: Sephacryl S300 gel filtration of NPR1 Cys-to-Ser mutant. The format is biochemical. The conditions noted are these: 1 mM SA. As to the method:
as §1

For assay [3], the system named is transcription activity of Δ513. Description: in vivo plant transcription assay, Δ513:DB co-expressed with BTB/POZ. To be noted: 1 mM salicylic acid in medium. It is filed as cell-based, Arabidopsis thaliana. As for the experimental part: Arabidopsis thaliana (Columbia) leaves were harvested from four-week-old plants grown at 21° C. (day) and 18° C. (night) with a ten-hour photoperiod and transferred to Petri dishes containing MS salts and micronutrients supplemented with B5 vitamins, 1% sucrose and 0.8% agar at a pH of 5.8. […] Coating of the gold particles and general procedures and preparation of the biolistic experiments were as per the manufacturer's instructions (Bio-Rad). After bombardment, leaves were kept in the conditions described above for a period of 24 hours before assaying. Enzyme assays were performed using the Dual-Luciferase Reporter Assay® system (Promega) following the manufacturer's instructions. Luminescence was measured on a Berthold Lumat LB9507 Luminometer (Bad Wildbad, Germany) and the data obtained represented the value of the reporter gene divided by the value of the internal standard and expressed as Relative Luciferase Units. To increase signal-to-noise ratio in some experiments, qPCR was performed to measure the amount of Firefly and Renilla Luciferases mRNA. The data was reported as Relative Expression and represented the value of the reporter mRNA divided by the value of the internal standard mRNA. The ratio obtained for Ga14 DB was assigned an arbitrary value of 1. […]
It was then determined whether or not the BTB/POZ could modulate the transcriptional properties of Δ513 (FIG. 5F). […]

The target in assay [4] is T3, BTB/POZ-Δ513 interaction (Arabidopsis thaliana, UniProt P93002).
T3 sequence (P93002 513-593): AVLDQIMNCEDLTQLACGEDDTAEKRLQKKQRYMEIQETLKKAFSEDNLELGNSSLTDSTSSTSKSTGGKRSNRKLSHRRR
The assay can be described thus: BTB/POZ-Δ513 pull-down assay. It is filed as biochemical. More on the design: made in house; host or cells: E. coli. To be noted: 1 mM SA. As to the method:
The BTB/POZ (amino acids 1-190 of NPR1) was expressed in E. coli as a C-terminal fusion to the Strep-Tag according to standard protocols. The Δ513 of NPR1 was expressed as an N-terminal fusion to the HA-Tag as described above. The VLRSgt (as described in Hall et al. (2007) Plant J 49, 579-591) was expressed in E. coli as an N-terminal fusion to the GST-Tag according to standard protocols. The pull-down assay was performed in the Strep-Tactin buffer. The antibodies used for detecting the tags in the BTB/POZ-Strep was from Qiagen (catalog #34850) and those used for the tags in HA-Δ513 or the GST-VLRSgt were from Santa Cruz Biotechnology (catalog #: sc-7392 and sc-138).
Given that the plant two-hybrid system is an in vivo method of analysis, an indirect effect of SA on the interaction of the BTB/POZ and the C-terminus of NPR1 cannot be ruled out. Thus, the interaction in vitro in a pull-down assay (FIG. 8) was tested. […] As negative controls, first an unrelated protein (VLRSgt) was shown not to interact with BTB/POZ (FIG. 5D) and secondly Δ513 was shown not to interact with the solid support in the absence of BTB/POZ (FIG. 5E).

T1 sequence (P93002 whole entry): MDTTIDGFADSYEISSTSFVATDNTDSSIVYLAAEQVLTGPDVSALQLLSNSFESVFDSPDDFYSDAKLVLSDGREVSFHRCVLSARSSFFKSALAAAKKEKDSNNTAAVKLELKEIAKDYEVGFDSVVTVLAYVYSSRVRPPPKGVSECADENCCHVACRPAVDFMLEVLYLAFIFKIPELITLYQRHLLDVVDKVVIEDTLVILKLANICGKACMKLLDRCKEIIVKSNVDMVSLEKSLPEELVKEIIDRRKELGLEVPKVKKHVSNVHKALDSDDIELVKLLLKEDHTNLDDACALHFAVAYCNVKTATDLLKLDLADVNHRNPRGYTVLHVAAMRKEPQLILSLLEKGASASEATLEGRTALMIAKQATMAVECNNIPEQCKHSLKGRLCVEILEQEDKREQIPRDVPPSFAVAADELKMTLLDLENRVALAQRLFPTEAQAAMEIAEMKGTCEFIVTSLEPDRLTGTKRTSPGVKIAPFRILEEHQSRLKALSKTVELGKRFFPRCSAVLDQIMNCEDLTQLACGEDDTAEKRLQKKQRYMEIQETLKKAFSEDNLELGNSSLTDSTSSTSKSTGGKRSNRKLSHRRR
T2 sequence (P93002 whole entry C521S/C529S): as the sequence (P93002 whole entry) above, with C521S, C529S counted along it

Regarding `O=C(O)c1ccccc1O` [SA, Salicylic acid], the “conformation of NPR1 (S300 elution profile)” value in assay [1] (1 mM SA, catechol, 4-hydroxy benzoic acid or methyl-salicylate, 30 min, DTT concentration not given) was “redistributed to the included volume”. Moreover, in assay [1] (50 mM EDTA 30 min, then 1 mM SA 30 min), the “SA-induced NPR1 conformation change after metal chelation” value was “abolished the NPR1 conformation change”. In assay [2], the “SA-induced NPR1 conformation change, Cys521/529 mutant” value is on record as “abolished the NPR1 conformation change”. In assay [3], the “transcription activity of Δ513 co-expressed with BTB/POZ in SA-treated cells” value is “unaffected by the BTB/POZ”. In assay [4], the “BTB/POZ-Δ513 interaction in pull-down” value is “disrupted”.

(Values after patent US10674724B2, “Method of activating immune response in plants” (priority 2012, dated 2020).)
